Measured values reported in article PMC12643509, “High-throughput screens identify genotype-specific therapeutics for channelopathies” (JCI Insight, 2025).
“And” between values parts separate entries of the source, which are not always exact repeats. Equal values may be shown once.

Key:
[1] = molecular target: wild-type KV11.1 (Homo sapiens, UniProt Q12809)
[2] = molecular target: WT Kv11.1 (Homo sapiens, UniProt Q12809); conditions: 24 hour and washout, individual wells
Sequence of WT Kv11.1 (Q12809 whole entry): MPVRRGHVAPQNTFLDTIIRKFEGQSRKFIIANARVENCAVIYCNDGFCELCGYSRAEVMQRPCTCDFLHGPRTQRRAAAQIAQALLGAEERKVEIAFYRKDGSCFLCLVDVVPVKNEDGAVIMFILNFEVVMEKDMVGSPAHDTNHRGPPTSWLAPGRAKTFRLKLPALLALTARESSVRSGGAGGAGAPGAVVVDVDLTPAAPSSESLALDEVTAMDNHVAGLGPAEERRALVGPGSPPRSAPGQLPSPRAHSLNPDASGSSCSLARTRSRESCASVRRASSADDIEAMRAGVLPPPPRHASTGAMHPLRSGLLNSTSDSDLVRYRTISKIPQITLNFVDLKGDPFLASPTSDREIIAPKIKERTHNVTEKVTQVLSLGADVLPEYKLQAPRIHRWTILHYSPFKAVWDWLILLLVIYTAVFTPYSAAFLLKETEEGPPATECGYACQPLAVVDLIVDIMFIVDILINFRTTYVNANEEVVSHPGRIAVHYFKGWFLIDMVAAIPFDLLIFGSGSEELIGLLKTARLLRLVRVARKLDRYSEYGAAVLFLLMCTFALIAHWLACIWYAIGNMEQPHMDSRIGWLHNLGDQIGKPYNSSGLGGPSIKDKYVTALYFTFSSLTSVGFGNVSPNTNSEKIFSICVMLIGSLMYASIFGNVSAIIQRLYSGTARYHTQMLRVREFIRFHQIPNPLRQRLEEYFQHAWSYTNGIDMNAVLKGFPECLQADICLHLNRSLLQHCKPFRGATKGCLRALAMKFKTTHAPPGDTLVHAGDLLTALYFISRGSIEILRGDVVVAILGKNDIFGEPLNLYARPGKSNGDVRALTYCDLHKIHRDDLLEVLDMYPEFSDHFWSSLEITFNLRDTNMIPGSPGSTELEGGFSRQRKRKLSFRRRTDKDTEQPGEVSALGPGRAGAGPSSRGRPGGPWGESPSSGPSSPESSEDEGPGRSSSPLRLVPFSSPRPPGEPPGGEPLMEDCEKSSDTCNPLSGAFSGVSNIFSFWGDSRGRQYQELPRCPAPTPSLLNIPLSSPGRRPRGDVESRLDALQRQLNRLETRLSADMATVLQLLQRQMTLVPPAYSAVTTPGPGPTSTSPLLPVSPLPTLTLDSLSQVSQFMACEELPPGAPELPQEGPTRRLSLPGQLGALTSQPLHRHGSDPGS
Text: plot of hits tested for 24-h our WT toxicity. Each point repres ents the med ia n robust Z score
after 24-hour treatm ent and washout in cells ex pressing WT.
robust Z scores be low bas eli ne function).
second ary screens w ere perform ed i n triplicate us ing 1 0 µ M drug treatme nt to assess: 1)
acute channel block, measur ed after a 15-minute inc ubati on with the drug present duri ng
recordi ngs; and 2) t oxicit y in W T channels, assesse d af t er a 24-hour drug ex posure fol low ed
(C) Tl+-measurements after 24-hour treatment and washout in HEK cells

Sequence of wild-type KV11.1 (Q12809 whole entry): as above

Row | Compound | inhibition of WT channels [1] | Changes in WT function (thallium flux) [2]
1 | CCc1c(C)[nH]c2c1C(=O)C(CN1CCOCC1)CC2 (stereo not drawn) [Moban, moban] | did not inhibit WT channels | 
2 | OC[C@H]1O[C@H](O[C@]2(CCl)O[C@H](CCl)[C@@H](O)[C@@H]2O)[C@H](O)[C@@H](O)[C@H]1Cl [Sucralose, sucralose] | did not inhibit WT channels | 0.1161 and 0.1317 and 0.1214
